Columns and labels:
5-HT6 = target: T1, 5-HT6 (Homo sapiens, UniProt P50406); test: Radioligand binding assay, 5-HT6 ([3H]-LSD); settings: HEK293 cell line with human 5-HT6R; 2 nM [3H]-LSD
T1 construct: expressed in transfected cells; host or cells: HEK293
Protocol: Ligand affinity for 5-HT6 receptors was subsequently tested with a radioligand binding assay, using the HEK293 cell line with human 5-HT6R, aiming to select compounds with the strongest affinity. Three compounds belonging to 2-naphthalenesulfonamide derivatives of 3,4-dihydroquinazolin-2-amines were obtained (Table 1).
(§1) The detailed procedure is presented in previous publications.[53] Assays were performed by incubating for 1 h at 37 °C (room temperature for 5-HT1A) in 200 μL volumes on 96-well plates. The reaction was terminated by rapid filtration using Unifilter plates, and radioactivity on the filters was measured with a PerkinElmer Microbeta plate reader. Radioligands used were:
(§2) Eight concentrations (10^–4 to 10^–11 M) were tested in triplicate for each compound. Inhibition constants (Ki) were calculated using the Cheng–Prusoff equation.[54] The results are expressed as the means of at least two independent experiments.

D2 = target: T2, D2 (Homo sapiens, UniProt P14416); test: Radioligand binding assay, D2 ([3H]-raclopride); settings: Table 3, unit inferred; 2.5 nM [3H]-raclopride
T2 construct: expressed in transfected cells; host or cells: HEK293
Protocol: (§3) Their functional activity was also evaluated by assessing their ability to inhibit agonist-induced cAMP production in HEK293 cells (Table 3). Extended radioisotope tests were aimed at detecting potential affinity for other aminergic receptors, whose role in cancer treatment may be important. Functions were tested for all receptors. The essence of functional tests results from the fact that serotonin stimulates tumor progression. Therefore, the ligand should have the potential to reduce its concentration, i.e., act as an antagonist.[39]
as §1
D2: 2.5 nM [^3H]-raclopride
as §2

[1] = Metabolic stability in mouse liver microsomes; type: in vitro ADME; settings: MLMs; for main metabolic pathway / metabolic stability, % of remaining: 120 min
Source text: Moving on to the next parameter, which is metabolism, we determined metabolic stability, using mouse liver microsomes (MLMs). […]
Main metabolic pathways are marked in red.

U-251 glioblastoma cells = test: Antiproliferative activity (MTS), U-251; type: cell-based, human; settings: Homo sapiens, U-251; MTS assay, 72 h
Protocol: These cell lines were characterized by different mutation profiles, the main one being the variable status of the p53 protein. In detail, U87MG cells have a wild-type p53 protein, while astrocytoma and the rest of GBM cells harbor mutated p53 protein. Additional assays were performed on MCF7 breast cancer and AsPC-1 pancreatic cancer cells. The wide range of tested lines was aimed at screening the anticancer potential of the tested compounds. The first represents one of the most common and the second one of the most aggressive cancers in the world. Comparing the activity of compounds on GBM cells to other types of cancer may reveal their selectivity and usefulness in targeted therapies. The cytotoxicity of the compounds on normal human astrocytes (NHA) and Feline catus astrocyte (PG-4) was determined. Tests on normal lines serve to verify the potential toxicity of the tested compounds on healthy cells. Due to the targeting of CNS tumors, astrocytes were selected as normal lines.
The detailed procedure is presented in previous publications.[53] […] Cells were cultured in appropriate media, supplemented with FBS, antibiotics, and other supplements, and incubated at 37 °C with 5% CO2. […] Cell viability was assessed using the MTS assay, and the inhibitory concentration (IC50) was calculated using GraphPad Prism 8.0. Each compound was tested in triplicate across multiple experiments.

5-HT1A = target: T3, 5-HT1A (Homo sapiens, UniProt P08908); test: Radioligand binding assay, 5-HT1A ([3H]-8-OHDPAT); settings: Table 3, unit inferred; 2.5 nM [3H]-8-OHDPAT
T3 construct: expressed in transfected cells; host or cells: HEK293
T3 sequence (P08908 1-422): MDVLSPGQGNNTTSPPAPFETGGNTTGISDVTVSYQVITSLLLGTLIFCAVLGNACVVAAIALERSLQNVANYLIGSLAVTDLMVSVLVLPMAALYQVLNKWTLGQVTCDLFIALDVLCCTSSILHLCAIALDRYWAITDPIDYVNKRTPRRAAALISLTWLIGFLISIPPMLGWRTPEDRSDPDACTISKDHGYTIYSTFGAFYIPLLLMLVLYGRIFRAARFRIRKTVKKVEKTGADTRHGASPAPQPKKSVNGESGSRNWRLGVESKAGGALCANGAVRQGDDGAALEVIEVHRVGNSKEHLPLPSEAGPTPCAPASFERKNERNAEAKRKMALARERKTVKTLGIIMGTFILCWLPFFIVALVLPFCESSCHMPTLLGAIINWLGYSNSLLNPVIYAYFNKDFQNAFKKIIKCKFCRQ
Protocol: as §3, §1, §2

[2] = Affinity to phospholipids, CHI IAM (Valko protocol); type: physicochemical; settings: IAM column
Protocol: Lipophilicity and affinity for phospholipids for each investigated molecule were assessed. Additionally, selected compounds with the highest biological activities have been characterized by their affinity plasma proteins. All experiments were performed using protocols developed by Valko.[35] These methods facilitated the calculation of chromatographic hydrophobicity indices (CHI) and plasma protein binding percentages (%PPB) in a biochromatographic experiment, with results compared to the reference. A detailed description of the experiments is provided in the Supporting Information (SI), along with the raw data. […] Although high lipophilicity may limit the medical use of the analyzed compounds since they may tend to accumulate excessively in the human body, it is remarkable that several clinically used drugs also have high lipophilicity. […] (Table 5).
The detailed procedure is presented in previous publications.[53] High-performance liquid chromatography (HPLC) analyses were conducted using the Prominence-1 LC-2030C 3D system (Shimadzu) with a DAD detector, employing three different chromatographic columns with specific stationary phases and mobile phases. The analysis was performed at 30 °C with a flow rate of 1.5 mL/min for IAM and C18 columns, and 0.9 mL/min for the Chiralpak column. Calibration standards for the columns were sourced from various suppliers and dissolved in dimethyl sulfoxide. Detection occurred in the UV range (190–300 nm) with a 5 μL injection volume. Each compound was analyzed in triplicate. Retention times for the tested compounds and calibration standards are provided in the Supporting Information (Tables S1 and S2).

HEK293 = test: Viability of HEK293 cells; type: cell-based; settings: Homo sapiens
Source text: PP 10 was characterized by a moderate 5-HT1A/5-HT5A/5-HT6/5-HT7 antagonist profile. […] Due to its potential function as an […], the viability of HEK293 cells treated with the test compounds was examined. No cytotoxic effects of the compounds were detected in the tested concentration range.

[3] = Solubility in DMSO and 10% DMSO in PBS buffer; type: physicochemical; settings: symbols not defined; for Solubility, 10% DMSO, 1 mM: 10% DMSO in PBS buffer
Protocol: for 24 h. […] The IC50 were calculated as
Table S1. Solubility in DMSO and 10% DMSO in PBS buffer
3. Absorption – PAMPA permeability test
*Permeability coefficient.
**CFN = caffeine, well-permeable control

in vitro = settings: PAMPA

T1 sequence (P50406 whole entry): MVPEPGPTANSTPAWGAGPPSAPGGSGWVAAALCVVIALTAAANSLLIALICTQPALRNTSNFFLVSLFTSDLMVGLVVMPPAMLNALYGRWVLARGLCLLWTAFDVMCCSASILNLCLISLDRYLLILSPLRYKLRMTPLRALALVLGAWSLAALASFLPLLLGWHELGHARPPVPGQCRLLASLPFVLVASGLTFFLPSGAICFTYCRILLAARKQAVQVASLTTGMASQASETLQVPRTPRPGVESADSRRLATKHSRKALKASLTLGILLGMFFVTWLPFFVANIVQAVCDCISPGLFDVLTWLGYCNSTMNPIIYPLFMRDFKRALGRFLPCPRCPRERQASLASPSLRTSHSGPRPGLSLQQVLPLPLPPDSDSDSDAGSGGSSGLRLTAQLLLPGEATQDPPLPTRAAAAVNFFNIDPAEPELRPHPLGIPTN
T2 sequence (P14416 whole entry): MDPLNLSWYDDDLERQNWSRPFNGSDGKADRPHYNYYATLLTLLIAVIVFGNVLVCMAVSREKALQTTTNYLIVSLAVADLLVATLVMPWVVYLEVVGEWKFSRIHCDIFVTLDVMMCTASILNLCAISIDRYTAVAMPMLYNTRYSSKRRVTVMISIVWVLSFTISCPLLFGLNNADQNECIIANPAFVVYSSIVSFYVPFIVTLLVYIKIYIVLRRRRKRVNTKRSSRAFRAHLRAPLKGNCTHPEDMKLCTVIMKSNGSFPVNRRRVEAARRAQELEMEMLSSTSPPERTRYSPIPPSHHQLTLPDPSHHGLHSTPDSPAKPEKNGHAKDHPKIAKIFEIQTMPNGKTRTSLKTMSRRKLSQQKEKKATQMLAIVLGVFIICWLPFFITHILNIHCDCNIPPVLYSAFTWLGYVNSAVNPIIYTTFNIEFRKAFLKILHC

Row | SMILES | Ki (5-HT6) [nM] | Ki (D2) [nM] | main metabolic pathway [1] | metabolic stability, % of remaining [1] [%] | IC50 (U-251 glioblastoma cells) [nM] | Ki (5-HT1A) [nM] | CHI IAM [2] | IC50 (HEK293) [nM] | Solubility, 10% DMSO, 1 mM [3] | Solubility, 100% DMSO, 10 mM [3] | Papp (in vitro) [×10⁻⁶ cm/s] | number of potential metabolites identified [1]
1 | O=S(=O)(c1cccc2ccccc12)N1CCN(CCNC2=Nc3ccccc3CN2)CC1 [PP 6, N-{2-[4-(Naphthalene-1-sulfonyl)piperazin-1-yl]ethyl}-3,4-dihydroquinazolin-2-amine] | 109 ± 27 | 7430 | double hydroxylation and double bond reduction | 72.76 | > 25000 | 42 | 50.9 | 51000 |  |  |  | 
2 | CC1NC(NCCCCCCNS(=O)(=O)c2cccc3ccccc23)=Nc2ccccc21 (stereo not drawn) [PP 10, N-{6-[(4-Methyl-3,4-dihydroquinazolin-2-yl)amino]hexyl}naphthalene-1-sulfonamide] | 96 ± 22 | 2930 | double hydroxylation and double bond reduction or double hydroxylation and ring opening | 66.60 | > 25000 | 165 | 56.4 | > 50000 | + + + | + + + | 0.03 | 14
3 | CC1NC(NCCCCCCNS(=O)(=O)c2c(Cl)ccc3ccccc23)=Nc2ccccc21 (stereo not drawn) [PP 13, 2-Chloro-N-{6-[(4-methyl-3,4-dihydroquinazolin-2-yl)amino]hexyl}naphthalene-1-sulfonamide] | 69 ± 17 | 1900 | ring opening and triple hydroxylation | 52.60 | > 25000 | 19 | 59.9 | > 50000 | + + + | + + + | 0.19 | 11
4 | O=S(=O)(NCCCCCCNc1ncc2ccccc2n1)c1cccc2ccccc12 [PP 15, N-{6-[(Quinazolin-2-yl)amino]hexyl}naphthalene-1-sulfonamide] | 42 ± 11 | 71800 | hydroxylation | 48.07 | > 25000 | 7160 | 45.8 | > 50000 | + + - | + + - | 0.13 | 
5 | O=S1(=O)c2cccc3cccc(c23)N1CCCCCCNC1=Nc2ccccc2CN1 [PP 24, 3-{6-[(3,4-Dihydroquinazolin-2-yl)amino]hexyl}-2λ^6-thia-3-azatricyclo[6.3.1.0^4,^12]dodeca-1(11),4(12),5,7,9-pentaene-2,2-dione] | 272 ± 68 |  | hydroxylation | 93.13 | 16500 ± 1000 |  | 56.5 |  | + + + | + + + | 0.73 | 

Source: paper PMC11866022, “Long-Chain Cyclic Arylguanidines as Multifunctional Serotonin Receptor Ligands with Antiproliferative Activity” (ACS Omega, 2025)
